We go through 23 molecules from US12404283B2, “c-MYC mRNA translation modulators and uses thereof in the treatment of cancer” (Anima Biotech Inc., priority 2022, dated 2025).

This assay deals with c-Myc. Put plainly: c-Myc immunofluorescence assay. Conditions: A549 cells, 24 hours treatment, anti-c-Myc immunofluorescence. Format: cell-based, human. In short, it runs like this: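 A549 cells grown 48 h, exposed 24 h to rising compound concentrations, then fixed, permeabilised and stained for c-Myc plus DAPI. Nuclear-segmented c-Myc fluorescence quantified by high-content imaging at 20×; EC50 from logistic dose–response fits.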

Regarding `CNC(=O)c1ccc(-c2cn3c(n2)sc2cc(C(=O)N[C@H]4c5ccccc5C[C@H]4O)ccc23)cc1` [compound 263, N-((1S,2R)-2-hydroxy-2,3-dihydro-1H-inden-1-yl)-2-(4-(methylcarbamoyl)phenyl) benzo[d]imidazo[2,1-b]thiazole-7-carboxamide], the “Myc Efficacy (−LogEC50)” value was “− (− ≤3)”.
Take `CCCN1CCC(NC(=O)c2ccc3c(c2)sc2nc(-c4ccc(C(=O)NC)cc4)cn23)CC1` [compound 264, 2-(4-(methylcarbamoyl)phenyl)-N-(1-propylpiperidin-4-yl)benzo[d]imidazo[2,1-b]thiazole-7-carboxamide]: the “Myc Efficacy (−LogEC50)” value is on record as “+++ (+++ ≥6)”.
The value for `Cc1cccc(-c2cn3c(n2)sc2cc(NC(=O)N4CCNCC4)ccc23)c1` [compound 265, N-(2-(m-tolyl)benzo[d]imidazo[2,1-b]thiazol-7-yl)piperazine-1-carboxamide] was “+ (+ >3 and <5)”.
The value for `CCN(CC)CCCC(=O)Nc1ccc2c(c1)sc1nc(-c3cccc(C)c3)cn12` [compound 266, 4-(diethylamino)-N-(2-(m-tolyl)benzo[d]imidazo[2,1-b]thiazol-7-yl)butanamide] was “+ (+ >3 and <5)”.
For the molecule `CCN(CC)CCNC(=O)Nc1ccc2c(c1)sc1nc(-c3cccc(C)c3)cn12` [compound 267, 1-(2-(diethylamino)ethyl)-3-(2-(m-tolyl)benzo[d]imidazo[2,1-b]thiazol-7-yl)urea], the “Myc Efficacy (−LogEC50)” value is “+ (+ >3 and <5)”.
Take `CCN(CC)CCCNC(=O)c1ccc2c(c1)sc1nc(-c3ccc(-c4ncc[nH]4)cc3)cn12` [compound 268, 2-(4-(1H-imidazol-2-yl)phenyl)-N-(3-(diethylamino)propyl) benzo[d]imidazo[2,1-b] thiazole-7-carboxamide]: the “Myc Efficacy (−LogEC50)” value is “+ (+ >3 and <5)”.
The entry for `CNC(=O)c1ccc(-c2cn3c(n2)sc2cc(C(=O)NC4CC(N(C)C)C4)ccc23)cc1` (centres unmarked) [compound 269, N-(3-(dimethylamino)cyclobutyl)-2-(4-(methylcarbamoyl)phenyl) benzo[d]imidazo[2,1-b]thiazole-7-carboxamide] is “+ (+ >3 and <5)”; for `CNC(=O)c1ccc(-c2cn3c(n2)sc2cc(C(=O)NC4CCCC(N)C4)ccc23)cc1` (centres unmarked) [compound 270, N-(3-aminocyclohexyl)-2-(4-(methylcarbamoyl)phenyl) benzo[d]imidazo[2,1-b]thiazole-7-carboxamide] it is “+ (+ >3 and <5)”; for `CNC(=O)c1ccc(-c2cn3c(n2)sc2cc(C(=O)NCCCN4CCCC4CO)ccc23)cc1` (centres unmarked) [compound 271, N-(3-(2-(hydroxymethyl)pyrrolidin-1-yl)propyl)-2-(4-(methylcarbamoyl)phenyl) benzo[d]imidazo[2,1-b]thiazole-7-carboxamide] it is “+ (+ >3 and <5)”.
With `CNC(=O)c1ccc(-c2cn3c(n2)sc2cc(C(=O)NCC4CC5(CNC5)C4)ccc23)cc1` [compound 272, N-((2-azaspiro[3.3]heptan-6-yl)methyl)-2-(4-(methylcarbamoyl)phenyl) benzo[d]imidazo[2,1-b]thiazole-7-carboxamide], the “Myc Efficacy (−LogEC50)” value was “− (− ≤3)”.
Turning to `CNC(=O)c1ccc(-c2cn3c(n2)sc2cc(C(=O)NC[C@H]4CC[C@H](O)CC4)ccc23)cc1` [compound 273, N-(((1r,4r)-4-hydroxycyclohexyl)methyl)-2-(4-(methylcarbamoyl)phenyl) benzo[d]imidazo[2,1-b]thiazole-7-carboxamide], the “Myc Efficacy (−LogEC50)” value is listed as “− (− ≤3)”.
Take `CNC(=O)c1ccc(-c2cn3c(n2)sc2cc(C(=O)N[C@H](C)C4CC4)ccc23)cc1` [compound 274, (R)-N-(1-cyclopropylethyl)-2-(4-(methylcarbamoyl)phenyl) benzo[d]imidazo[2,1-b]thiazole-7-carboxamide]: the “Myc Efficacy (−LogEC50)” value is “+ (+ >3 and <5)”.
Regarding `CNC(=O)c1ccc(-c2cn3c(n2)sc2cc(C(=O)NCc4ccccc4)ccc23)cc1` [compound 275, N-benzyl-2-(4-(methylcarbamoyl)phenyl) benzo[d]imidazo[2,1-b]thiazole-7-carboxamide], the “Myc Efficacy (−LogEC50)” value is listed as “− (− ≤3)”.
Turning to `CCN(CC)CCCNC(=O)c1ccc2c(c1)sc1nc(-c3ccc(CN(C)C)cc3)cn12` [compound 276, N-(3-(diethylamino)propyl)-2-(4-((dimethylamino)methyl)phenyl)benzo[d]imidazo[2,1-b]thiazole-7-carboxamide], the “Myc Efficacy (−LogEC50)” value is “+++ (+++ ≥6)”.
The value for `CCN(CC)CCCNC(=O)c1ccc2c(c1)sc1nc(-c3ccc(CO)cc3)cn12` [compound 277, N-(3-(diethylamino)propyl)-2-(4-(hydroxymethyl)phenyl) benzo[d]imidazo[2,1-b] thiazole-7-carboxamide] was “++ (++ ≥5 and <6)”; that for `CNC(=O)c1ccc(-c2cn3c(n2)sc2cc(C(=O)NCC4(C)CNC4)ccc23)cc1` [compound 278, N-((3-methylazetidin-3-yl)methyl)-2-(4-(methylcarbamoyl)phenyl) benzo[d]imidazo[2,1-b]thiazole-7-carboxamide] was “− (− ≤3)”; that for `CNC(=O)c1ccc(-c2cn3c(n2)sc2cc(C(=O)NCC4CC5(CC5)CN4)ccc23)cc1` (centres unmarked) [compound 279, N-((5-azaspiro[2.4]heptan-6-yl)methyl)-2-(4-(methylcarbamoyl)phenyl) benzo[d]imidazo[2,1-b]thiazole-7-carboxamide] was “− (− ≤3)”.
For `CNC(=O)c1ccc(-c2cn3c(n2)sc2cc(C(=O)NC4CC(C)C4)ccc23)cc1` (centres unmarked) [compound 280, 2-(4-(methylcarbamoyl)phenyl)-N-(3-methylcyclobutyl)benzo[d] imidazo[2,1-b]thiazole-7-carboxamide], the “Myc Efficacy (−LogEC50)” value was “++ (++ ≥5 and <6)”.
The value for `CNC(=O)c1ccc(-c2cn3c(n2)sc2cc(C(=O)NCCCN4CCCCC4)ccc23)c(F)c1` [compound 281, 2-(2-fluoro-4-(methylcarbamoyl)phenyl)-N-(3-(piperidin-1-yl)propyl)benzo[d]imidazo [2,1-b]thiazole-7-carboxamide] was “++ (++ ≥5 and <6)”; that for `CCNC(=O)c1ccc(-c2cn3c(n2)sc2cc(C(=O)NCCCN(CC)CC)ccc23)cc1` [compound 282, N-(3-(diethylamino)propyl)-2-(4-(ethylcarbamoyl)phenyl) benzo[d]imidazo[2,1-b]thiazole-7-carboxamide] was “+ (+ >3 and <5)”.
The value for `CCN(CC)CCCNC(=O)c1ccc2c(c1)sc1nc(-c3ccc(C(=O)NC(C)C)cc3)cn12` [compound 283, N-(3-(diethylamino)propyl)-2-(4-(isopropylcarbamoyl)phenyl) benzo[d]imidazo[2,1-b]thiazole-7-carboxamide] was “+ (+ >3 and <5)”.
On to `CCN(CC)CCCNC(=O)c1ccc2c(c1)sc1nc(-c3ccc(C(=O)NCCOC)cc3)cn12` [compound 284, N-(3-(diethylamino)propyl)-2-(4-((2-methoxyethyl)carbamoyl)phenyl)benzo[d]imidazo[2,1-b]thiazole-7-carboxamide], for which the “Myc Efficacy (−LogEC50)” value was “+ (+ >3 and <5)”.
On to `CCN(CC)CCCNC(=O)c1ccc2c(c1)sc1nc(-c3ccc(C(=O)NCCO)cc3)cn12` [compound 285, N-(3-(diethylamino)propyl)-2-(4-((2-hydroxyethyl)carbamoyl)phenyl)benzo[d]imidazo[2,1-b]thiazole-7-carboxamide], for which the “Myc Efficacy (−LogEC50)” value is “+ (+ >3 and <5)”.
